The text below walks through data of publication PMC11742723, “The clinical-stage drug BTZ-043 accumulates in murine tuberculosis lesions and efficiently acts against Mycobacterium tuberculosis” (Nature Communications, 2025).

In series [1] the test system is Mtb H37Rv. Description: BTZ-043 dose-fractionation study in Mtb-infected BALB/c mice (lung CFU). The series is classed as in vivo, Mycobacterium tuberculosis. Particulars: 10 mg /kg INH; 6 weeks of treatment; individual female mice.
The subject of series [2] is Mtb H37Rv. Description: BTZ-043 dose escalation study in Mtb-infected BALB/c mice (pulmonary CFU). The following applies: 25 mg/kg INH, individual female mice. The series is classed as in vivo, Mycobacterium tuberculosis.
For series [3] the following is noted: cited from earlier work.
For another series, the system named is Caco-2 cell monolayers. Description: In vitro permeability assay in Caco-2 monolayers. The following applies: for Concentration: replicates 1-3. For orientation: Caco-2 cells form a polarised layer with tight junctions and transporters.
The nature of series [4]: In vitro permeability assay in Caco-2 monolayers. The following applies: human; for Papp at 120 min, 25 µg/mL / Papp at 120 min, 40 µg/mL: Caco-2, Mean Papp, n=3; for Papp at 120 min, 25 µg/mL: Caco-2, 25 µg/mL; for Papp at 120 min, 40 µg/mL: Caco-2, 40 µg/mL.
Another series relates to Caco-2. The following applies: cited from earlier work.

“And” between values parts separate entries of the source, which are not always exact repeats. Identical values can stand only once.

Consider `NNC(=O)c1ccncc1` [INH, isoniazid, reference compound], for which the “pulmonary CFU counts / mouse” value with Mtb H37Rv [1] is 251 CFU counts / mouse (2×) and 876 CFU counts / mouse and 1751 CFU counts / mouse; in the series on Mtb H37Rv [2] (4 weeks of treatment), 306600 CFU counts / mouse and 698438 CFU counts / mouse and 504563 CFU counts / mouse and 274286 CFU counts / mouse and 298200 CFU counts / mouse and 595125 CFU counts / mouse; in the series on Mtb H37Rv [2] (6 weeks of treatment), 135000 CFU counts / mouse and 142313 CFU counts / mouse and 207692 CFU counts / mouse and 103500 CFU counts / mouse and 144000 CFU counts / mouse and 145313 CFU counts / mouse; with Mtb H37Rv [2] (8 weeks of treatment), 40714 CFU counts / mouse and 48086 CFU counts / mouse and 100000 CFU counts / mouse and 45000 CFU counts / mouse and 32560 CFU counts / mouse and 144000 CFU counts / mouse.

What is called Papp A→B is how fast a substance crosses the layer from the apical side. A high value points to fast passage. What is called Papp B→A is the apparent permeability from the basolateral to the apical side of a cell layer. One may read the efflux ratio as the permeability from basolateral to apical divided by that in the opposite direction, in the common usage. For orientation: Papp means a coefficient for how fast a substance crosses the barrier. Higher therefore signals ready permeation. For the molecule `NC(=O)c1cnccn1` [PZA, pyrazinamide], the “penetration into centrally necrotizing granulomas” value in series [3] was “readily penetrates centrally necrotizing granulomas”. In the series with Caco-2 cell monolayers (Caco-2), the permeability classification result is given as “highly permeable drug”. Moreover, the Concentration in the series on Caco-2 cell monolayers (PZA 25 μg mL^-1, direction AB, time 0 min) was 0 ng/mL; in the series on Caco-2 cell monolayers (PZA 25 μg mL^-1, direction AB, time 10 min) it was 0 ng/mL and 525.202 ng/mL; in the series on Caco-2 cell monolayers (PZA 25 μg mL^-1, direction AB, time 30 min) it was 1333.17 ng/mL and 1096.85 ng/mL and 1005.65 ng/mL; in the series on Caco-2 cell monolayers (PZA 25 μg mL^-1, direction AB, time 60 min), 3321.25 ng/mL and 3452.37 ng/mL and 3341.43 ng/mL; in the series on Caco-2 cell monolayers (PZA 25 μg mL^-1, direction AB, time 90 min), 3158.86 ng/mL and 3253.04 ng/mL and 3097.63 ng/mL; in the series on Caco-2 cell monolayers (PZA 25 μg mL^-1, direction AB, time 120 min) it was 4030.2 ng/mL and 4138.52 ng/mL and 3490.73 ng/mL. The Concentration in the series on Caco-2 cell monolayers (PZA 25 μg mL^-1, direction BA, time 0 min) was 0 ng/mL; with Caco-2 cell monolayers (PZA 25 μg mL^-1, direction BA, time 10 min), 1503.99 ng/mL and 1317.17 ng/mL and 1941.63 ng/mL; in the series with Caco-2 cell monolayers (PZA 25 μg mL^-1, direction BA, time 30 min), 5734.38 ng/mL and 4427.73 ng/mL and 5446.92 ng/mL; in the series on Caco-2 cell monolayers (PZA 25 μg mL^-1, direction BA, time 60 min) it was 9786.14 ng/mL and 7994.45 ng/mL and 7975.63 ng/mL; with Caco-2 cell monolayers (PZA 25 μg mL^-1, direction BA, time 90 min), 11259.4 ng/mL and 8631.13 ng/mL and 9901.08 ng/mL; with Caco-2 cell monolayers (PZA 25 μg mL^-1, direction BA, time 120 min) it was 13405.8 ng/mL and 11006.7 ng/mL and 13558.7 ng/mL. Further, the Concentration in the series with Caco-2 cell monolayers (PZA 40 μg mL^-1, direction AB, time 0 min) was 0 ng/mL; in the series on Caco-2 cell monolayers (PZA 40 μg mL^-1, direction AB, time 10 min), 1048.64 ng/mL and 287.742 ng/mL and 2327.22 ng/mL; in the series with Caco-2 cell monolayers (PZA 40 μg mL^-1, direction AB, time 30 min), 1430.93 ng/mL and 3432 ng/mL and 3592.69 ng/mL; in the series with Caco-2 cell monolayers (PZA 40 μg mL^-1, direction AB, time 60 min), 4853.22 ng/mL and 4349.7 ng/mL and 4275.28 ng/mL; with Caco-2 cell monolayers (PZA 40 μg mL^-1, direction AB, time 90 min) it was 5770.39 ng/mL and 5601.9 ng/mL and 5436.88 ng/mL; in the series on Caco-2 cell monolayers (PZA 40 μg mL^-1, direction AB, time 120 min), 4977.56 ng/mL and 4113.08 ng/mL and 4440.77 ng/mL. For the same molecule, the Concentration is 4045.86 ng/mL and 115.41 ng/mL and 340.993 ng/mL in the series on Caco-2 cell monolayers (PZA 40 μg mL^-1, direction BA, time 0 min); 3969.46 ng/mL and 1843.77 ng/mL and 2669.48 ng/mL in the series with Caco-2 cell monolayers (PZA 40 μg mL^-1, direction BA, time 10 min); 5459.68 ng/mL and 4472.97 ng/mL and 5086.94 ng/mL in the series with Caco-2 cell monolayers (PZA 40 μg mL^-1, direction BA, time 30 min); 9734.39 ng/mL and 8339.56 ng/mL and 9591.97 ng/mL in the series on Caco-2 cell monolayers (PZA 40 μg mL^-1, direction BA, time 60 min); 11611.6 ng/mL and 10257.1 ng/mL and 12377.9 ng/mL in the series on Caco-2 cell monolayers (PZA 40 μg mL^-1, direction BA, time 90 min); 12904.2 ng/mL and 13264.5 ng/mL and 15050 ng/mL in the series with Caco-2 cell monolayers (PZA 40 μg mL^-1, direction BA, time 120 min). For the same molecule, the “Calculated Amount” value in the series on Caco-2 cell monolayers (PZA (25 µg mL^-1), direction AB, compartment api, time 0 min) was 20066.1 and 22292.2 and 24678; with Caco-2 cell monolayers (PZA (25 µg mL^-1), direction AB, compartment api, time 120 min), 10717.9 and 11820.9 and 10695.5; with Caco-2 cell monolayers (PZA (25 µg mL^-1), direction AB, compartment baso, time 0 min), 0; with Caco-2 cell monolayers (PZA (25 µg mL^-1), direction AB, compartment baso, time 30 min), 1096.85 and 1005.65; in the series on Caco-2 cell monolayers (PZA (25 µg mL^-1), direction AB, compartment baso, time 60 min) it was 3321.25 and 3452.37 and 3341.43; in the series on Caco-2 cell monolayers (PZA (25 µg mL^-1), direction AB, compartment baso, time 90 min) it was 3158.86 and 3253.04 and 3097.63. The “Calculated Amount” value in the series with Caco-2 cell monolayers (PZA (25 µg mL^-1), direction AB, compartment baso, time 120 min) was 4030.2 and 4138.52 and 3490.73; with Caco-2 cell monolayers (PZA (25 µg mL^-1), direction BA, compartment api, time 0 min), 0; in the series with Caco-2 cell monolayers (PZA (25 µg mL^-1), direction BA, compartment api, time 10 min), 1503.99 and 1317.17 and 1941.63; in the series with Caco-2 cell monolayers (PZA (25 µg mL^-1), direction BA, compartment api, time 30 min), 5734.38 and 4427.73 and 5446.92; with Caco-2 cell monolayers (PZA (25 µg mL^-1), direction BA, compartment api, time 60 min), 9786.14 and 7994.45 and 7975.63; with Caco-2 cell monolayers (PZA (25 µg mL^-1), direction BA, compartment api, time 90 min) it was 11259.4 and 8631.13 and 9901.08. The “Calculated Amount” value in the series with Caco-2 cell monolayers (PZA (25 µg mL^-1), direction BA, compartment api, time 120 min) was 13405.8 and 11006.7 and 13558.7; with Caco-2 cell monolayers (PZA (25 µg mL^-1), direction BA, compartment baso, time 120 min) it was 22133.4; with Caco-2 cell monolayers (PZA (40 µg mL^-1), direction AB, compartment api, time 120 min) it was 15162.6 and 15570.7 and 14836.3; in the series with Caco-2 cell monolayers (PZA (40 µg mL^-1), direction BA, compartment baso, time 120 min), 27713.4 and 29783.3 and 27759.2. The same molecule returned a Papp A→B at 120 min in series [4] (Caco-2) of 49.7 to 61 ×10⁻⁶ cm/s. The molecule also showed a Papp B→A at 120 min in series [4] (Caco-2) of 35 to 39.2 ×10⁻⁶ cm/s. Besides, the efflux ratio at 120 min, 25 µg/mL in series [4] (Caco-2) amounted to 0.79. The efflux ratio at 120 min, 40 µg/mL in series [4] (Caco-2) was 0.57. Moreover, the Papp at 120 min, 25 µg/mL in series [4] (direction AB) is 49.7 ×10⁻⁶ cm/s; in series [4] (direction BA), 39.2 ×10⁻⁶ cm/s. Also, the Papp at 120 min, 40 µg/mL is 61 ×10⁻⁶ cm/s in series [4] (direction AB) and 35 ×10⁻⁶ cm/s in series [4] (direction BA). Besides, the “Papp (AB)” value in the series on Caco-2 is reported as 70.4 10^−6 cm/s. Besides, in the series on Caco-2, the “Papp (BA)” value was 37.1 10^−6 cm/s.

Turning to `CO[C@H]1/C=C/O[C@@]2(C)Oc3c(C)c(O)c4c(O)c(c(/C=N/N5CCN(C)CC5)c(O)c4c3C2=O)NC(=O)/C(C)=C\C=C\[C@H](C)[C@H](O)[C@@H](C)[C@@H](O)[C@@H](C)[C@H](OC(C)=O)[C@@H]1C` [RIF, rifampicin], in series [3], the “penetration into the cellular rim and necrotic center” value is “at least some penetration”.

Regarding `CC(C)=CCC/C(C)=C/CNCCNC1C2CC3CC(C2)CC1C3` (stereo not shown) [SQ109], the “distribution in centrally necrotizing lesions by MALDI imaging” value in series [3] (in vivo) is “strong signals in the cellular rim of centrally necrotizing lesions but only poor diffusion into the avascular caseum”.

Take `CC(C)/N=c1\cc2n(-c3ccc(Cl)cc3)c3ccccc3nc-2cc1Nc1ccc(Cl)cc1` [clofazimine]: in series [3], the “penetration into centrally necrotizing granulomas” value was “only very limited penetration”. Further, in the series on Caco-2, the “Papp (AB)” value is on record as 0.17 10^−6 cm/s and the “Papp (BA)” value is 0.18 10^−6 cm/s.
